Results on eight molecules are retold here after the NIST ThermoML archive (doi:10.1016/j.fluid.2019.04.019).

For data set [1] the following is noted: Crystal.
Data set [2] in a line: Molar enthalpy of transition or fusion. Conditions: Crystal; DSC.

± gives the expanded uncertainty stated by the source.

Regarding `CCC[N+]1(C)CCCCC1.[Cl-]` [1-methyl-1-propyl-piperidinium chloride], in data set [1] (visual observation), the Normal melting temperature amounted to 225.2 ± 0.5 °C.
Take `C[N+](C)(C)CCO.[Br-]` [choline bromide]: the Normal melting temperature in data set [1] (visual observation) came out at 308.5 ± 0.5 °C.
With `CC(O)C[N+](C)(C)C.[Cl-]` (stereo not drawn) [beta.-methylcholine chloride], the “Molar enthalpy of transition or fusion” value in data set [2] came to 1.61 ± 0.0693 kcal/mol. Also, the Normal melting temperature in data set [1] (DTA) came out at 169 ± 0.5 °C.
Regarding `C[N+](C)(CCO)CCO.[Cl-]` [diethanoldimethylammonium chloride], the Normal melting temperature in data set [1] (visual observation) came to 290.6 ± 0.5 °C.
On to `CC[N+](CC)(CC)CC.[Cl-]` [tetraethylammonium chloride], for which the Normal melting temperature in data set [1] (visual observation) is 262.2 ± 0.5 °C.
Consider `CCCC[n+]1ccccc1.[Cl-]` [1-butylpyridinium chloride], for which the “Molar enthalpy of transition or fusion” value in data set [2] amounted to 6.25 ± 0.182 kcal/mol. Further, in data set [1] (DTA), the Normal melting temperature turned out to be 132.2 ± 0.5 °C.
`C[N+](C)(C)C.[Cl-]` [tetramethylammonium chloride]: the Normal melting temperature in data set [1] (visual observation) turned out to be 341.6 ± 0.5 °C.
With `C[N+](C)(C)Cc1ccccc1.[Cl-]` [trimethylbenzylammonium chloride], the Normal melting temperature in data set [1] (visual observation) was 236.1 ± 0.5 °C.
